Data on 7 substances can be found in PMC6745501, “Plant photoreceptors and their signaling components compete for COP1 binding via VP peptide motifs” (The EMBO Journal, 2019).

For assay [1], the target named is T1, COP1^Lys422Ala WD40 domain (Arabidopsis thaliana, UniProt P43254, K422A).
T1 construct: His10-Twin-Strep with TEV site (N, cleaved yes); made in house; host or cells: Spodoptera frugiperda Sf9 insect cells (baculovirus, modified pFastBac)
As to the kind of experiment: biochemical. It counts as binding. As to conditions: for N (stoichiometry of binding), VP peptide vs. COP1^Lys422Ala: peptide into COP1^Lys422Ala, 25°C, ± standard deviation.
Method: (§1) All experiments were performed in a buffer containing 150 mM NaCl, 20 mM HEPES 7.4, and 2 mM BME. […] The peptides were centrifuged at 14,000 × g for 10 min, and only the supernatant was used. The dissolved peptide concentrations were calculated based upon their absorbance at 280 nm and their corresponding molar extinction coefficient. […] Experiments were performed at 25°C and a stirring speed of 1,000 rpm on an ITC200 instrument (GE Healthcare). All data were processed using Origin 7.0 and fit to a one‐site binding model after background buffer subtraction.

The target of assay [2] is T2, Arabidopsis COP1^349–675 WD40 domain (Arabidopsis thaliana, UniProt P43254).
T2 construct: His10-Twin-Strep with TEV site (N, cleaved yes); made in house; host or cells: Spodoptera frugiperda Sf9 insect cells (baculovirus, modified pFastBac)
T2 sequence (P43254 349-675): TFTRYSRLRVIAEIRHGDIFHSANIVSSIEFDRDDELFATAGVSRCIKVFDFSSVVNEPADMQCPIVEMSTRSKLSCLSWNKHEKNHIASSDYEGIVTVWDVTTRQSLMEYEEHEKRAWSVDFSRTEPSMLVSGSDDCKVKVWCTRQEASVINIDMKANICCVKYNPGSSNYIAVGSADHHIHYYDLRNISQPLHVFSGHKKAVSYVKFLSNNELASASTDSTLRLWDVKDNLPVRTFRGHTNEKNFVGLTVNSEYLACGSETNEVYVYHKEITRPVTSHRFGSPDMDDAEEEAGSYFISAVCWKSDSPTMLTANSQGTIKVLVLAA
As to the kind of experiment: Isothermal titration calorimetry (ITC) versus the COP1 WD40 domain. As to conditions: for N (stoichiometry of binding), VP peptide vs. COP1 WD40 domain (WT): peptide into COP1, 25°C, one-site binding model, ± standard deviation. The format is binding.
Method: All experiments were performed in a buffer containing 150 mM NaCl, 20 mM HEPES 7.4, and 2 mM BME. Peptides were synthesized and delivered as lyophilized powder (Peptide Specialty Labs GmbH) and dissolved directly in buffer. The peptides were centrifuged at 14,000 × g for 10 min, and only the supernatant was used. […] Experiments were performed at 25°C and a stirring speed of 1,000 rpm on an ITC200 instrument (GE Healthcare). All data were processed using Origin 7.0 and fit to a one‐site binding model after background buffer subtraction.

In assay [3] the target is T3, COP1^Tyr441Ala WD40 domain (Arabidopsis thaliana, UniProt P43254, Y441A).
T3 construct: His10-Twin-Strep with TEV site (N, cleaved yes); made in house; host or cells: Spodoptera frugiperda Sf9 insect cells (baculovirus, modified pFastBac)
T3 sequence (P43254 349-675 Y441A): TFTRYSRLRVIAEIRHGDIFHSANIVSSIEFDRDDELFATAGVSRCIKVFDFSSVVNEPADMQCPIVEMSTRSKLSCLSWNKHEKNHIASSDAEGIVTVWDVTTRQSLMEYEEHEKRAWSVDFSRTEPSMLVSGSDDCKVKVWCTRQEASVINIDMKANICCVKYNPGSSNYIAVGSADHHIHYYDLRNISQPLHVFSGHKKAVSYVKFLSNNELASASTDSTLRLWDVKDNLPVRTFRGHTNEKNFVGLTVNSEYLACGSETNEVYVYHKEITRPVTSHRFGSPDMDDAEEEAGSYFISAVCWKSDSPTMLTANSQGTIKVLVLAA
It counts as binding. As to conditions: ITC, peptide into COP1^Tyr441Ala, 25°C; ± standard deviation.
Method: as §1

The subject of assay [4] is COP1 WD40 domain. As to the kind of experiment: Analytical size-exclusion chromatography binding assay. More on the design: species or system Arabidopsis. As to conditions: Superdex 200 Increase 10/300 GL, ~4 μM per protein. On the procedure:
500 μl of the respective protein solution or a mixture (~ 4 μM per protein) was loaded sequentially onto the column, and elution at 0.75 ml/min was monitored by UV absorbance at 280 nm.
Background: In gel filtration, larger molecules generally elute earlier.

Assay [5] addresses COP1 WD40 domain. Nature of the assay: Grating-coupled interferometry (GCI) binding kinetics versus the COP1 WD40 domain. More on the design: species or system Arabidopsis. As to conditions: ligand COP1 (2000 pg/mm2), analyte in the absence of UV-B (ground state), highest concentration 2 μM, 1:1 binding model, read-out: Kd (dissociation constant), - UV-B. The method, then:
For CRY2 activation, proteins were diluted to their final assay concentrations (as indicated in the figure legends) in Eppendorf tubes and exposed to 10 min of fluorescent light on ice.
The Creoptix WAVE system (Creoptix AG), a label‐free surface biosensor, was used to perform GCI experiments. All experiments were performed on 2PCH or 4PCH WAVEchips (quasi‐planar polycarboxylate surface; Creoptix AG). After a borate buffer conditioning (100 mM sodium borate pH 9.0, 1 M NaCl; Xantec), COP1 (ligand) was immobilized on the chip surface using standard amine‐coupling: 7 min activation [1:1 mix of 400 mM N‐(3‐dimethylaminopropyl)‐N′‐ethylcarbodiimide hydrochloride and 100 mM N‐hydroxysuccinimide (both Xantec)], injection of COP1 (10 μg/ml) in 10 mM sodium acetate pH 5.0 (Sigma) until the desired density was reached, and final quenching with 1 M ethanolamine pH 8.0 for 7 min (Xantec). […] Blank injections were used for double referencing and a dimethyl sulfoxide (DMSO) calibration curve for bulk correction. Analysis and correction of the obtained data were performed using the Creoptix WAVEcontrol software (applied corrections: X and Y offset; DMSO calibration; double referencing), and a one‐to‐one binding model or a heterogenous ligand model with bulk correction was used to fit all experiments.

Where “and” joins values, the source holds several entries; their conditions need not be identical. Identical values can stand only once.

T1 sequence (P43254 349-675 K422A): as the sequence (P43254 349-675 Y441A) above, with K74A, A93Y counted along it

Ac-EDQMVPSITY-NH2 [CRY1 peptide]: the “N (stoichiometry of binding), VP peptide vs. COP1^Lys422Ala” value in assay [1] (ITC) is 0.98 ± 0.1. For the same substance, the “N (stoichiometry of binding), VP peptide vs. COP1 WD40 domain (WT)” value in assay [2] (ITC) came out at 0.99 ± 0.3.
As a reminder, the Kd is the free concentration of one partner at which half of the binding sites on the other are occupied at equilibrium, for simple one-to-one binding. Take Ac-EIRRVPEFGGY-NH2 [HY5 peptide]: the Kd in assay [1] was 23 ± 10 µM; in assay [2], 23 ± 7 µM. For the same substance, the “N (stoichiometry of binding), VP peptide vs. COP1^Lys422Ala” value in assay [1] (ITC) stood at 0.83 ± 0.2. Besides, the “N (stoichiometry of binding), VP peptide vs. COP1^Tyr441Ala” value in assay [3] is listed as 0.92 ± 0.3. In addition, the “Times stronger binding to COP1 than UVR8^406–413” value in assay [2] (ITC, ratio of Kd values) is ~ 8.
In the case of Ac-GFGVVPSFY-NH2 [COL3 peptide], the “N (stoichiometry of binding), VP peptide vs. COP1^Lys422Ala” value in assay [1] (ITC) came to 0.90 ± 0.2. The “N (stoichiometry of binding), VP peptide vs. COP1 WD40 domain (WT)” value in assay [2] (ITC) stood at 0.75 ± 0.2.
For the substance Ac-GYGIVPSFY-NH2 [CO peptide], in assay [1], the Kd was 21 ± 10 µM. Moreover, the “N (stoichiometry of binding), VP peptide vs. COP1^Lys422Ala” value in assay [1] (ITC) was 0.89 ± 0.03. Moreover, in assay [1] (ITC, ratio of Kd values), the “Fold increase of binding affinity for COP1^Lys422Ala compared with wild type COP1” value is given as ~ 4. Further, in assay [2] (ITC), the “N (stoichiometry of binding), VP peptide vs. COP1 WD40 domain (WT)” value is reported as 1.03 ± 0.00.
As for Ac-NDQQVPSAVY-NH2 [CRY2 peptide], the “Times reduction of binding by the COP1^Lys422Ala mutation compared with wild type COP1” value in assay [1] (ITC, ratio of Kd values) is reported as ~ 30. In assay [2], this substance returned a Kd of 21 ± 2 µM. For the same substance, the “N (stoichiometry of binding), VP peptide vs. COP1 WD40 domain (WT)” value in assay [2] (ITC) was 1.04 ± 0.20.
As to Ac-RYAVVPDE-NH2 [UVR8 peptide], the “N (stoichiometry of binding), VP peptide vs. COP1^Lys422Ala” value in assay [1] (ITC) was found to be 0.87 ± 0.2. Also, the “Fold increase of binding affinity for COP1^Lys422Ala compared with wild type COP1” value in assay [1] (ITC, ratio of Kd values) is on record as ~ 10.
Take “UVR8: recombinant full-length Arabidopsis UV-B photoreceptor UVR8 expressed in insect cells”: the “Interaction with the COP1 WD40 domain in size-exclusion chromatography, UV-B-activated” value in the assay with COP1 WD40 domain [4] (150 mM NaCl, 20 mM HEPES 7.4, 2 mM BME, protein pre-monomerized by UV-B) is recorded as “interact”. In addition, the “Interaction with the COP1 WD40 domain in size-exclusion chromatography, non-activated” value with COP1 WD40 domain [4] (absence of UV-B (dimer)) is given as “no interaction”. Also, the Kd at COP1 WD40 domain [5] is ~1 µM and 1.3 µM.
